Source: patent publication US8545830B2, “Multi-functional polymeric materials and their uses” (University of Tennessee Research Foundation, priority 2003, dated 2013)

Assay: In vitro release of model drugs methylene blue and BSA from NIPAAm-co-Dex-lactateHEMA hydrogel
Type: physicochemical
Conditions: methylene blue from NIPAAm-co-Dex-lactateHEMA gel 5/4 (FIG. 9), PBS pH 7.4, 37° C.
Experimental: To test the potential of the developed hydrogels as drug release devices, two model drugs (22.5 mg) were loaded during the hydrogel synthesis, which were methylene blue and bovine serum albumin (BSA), representing small molecules and protein drugs, respectively. BSA- or methylene blue-loaded dry gels were immersed in a certain volume of PBS (pH 7.4) at 25 or 37° C. At selected time points, small volume of samples were taken and tested for solute concentration. The same volume of fresh PBS (pH 7.4) was replaced to maintain a constant volume of release medium. Concentration of methylene blue was measured by a UV spectrophotometer at 668 nm. Concentration of BSA was determined through Bradford protein assay.

## CN(C)c1ccc2nc3ccc(=[N+](C)C)cc-3sc2c1 [methylene blue]
  loaded drug released in initial burst: more than 70%
  time after which drug release reached a stable stage: three
